Experimental data: patent publication US8686024B2, “Indoline derivatives” (priority 2009, dated 2014)
Where two headings read alike, the source gives them in different places.

What was measured:
[1] = target: T1, butyrylcholine esterase (BuChE) (Mus musculus, UniProt Q03311); experiment: In vitro assay for choline esterase inhibition (Ellman method), butyrylthiocholine substrate, mouse serum; type: biochemical; conditions: for Ratio AChE/BuChE: selectivity for BuChE inhibition: IC50 (AchE)/IC50 (BuChE); for selectivity to butyrylcholinesterase (BuChE versus AChE inhibitory activity), in words: summary of Tables 1-3
T1 construct: brain homogenate and serum of mouse were used as choline esterase enzyme sources; from tissue; host or cells: mouse serum
T1 sequence (Q03311 30-603): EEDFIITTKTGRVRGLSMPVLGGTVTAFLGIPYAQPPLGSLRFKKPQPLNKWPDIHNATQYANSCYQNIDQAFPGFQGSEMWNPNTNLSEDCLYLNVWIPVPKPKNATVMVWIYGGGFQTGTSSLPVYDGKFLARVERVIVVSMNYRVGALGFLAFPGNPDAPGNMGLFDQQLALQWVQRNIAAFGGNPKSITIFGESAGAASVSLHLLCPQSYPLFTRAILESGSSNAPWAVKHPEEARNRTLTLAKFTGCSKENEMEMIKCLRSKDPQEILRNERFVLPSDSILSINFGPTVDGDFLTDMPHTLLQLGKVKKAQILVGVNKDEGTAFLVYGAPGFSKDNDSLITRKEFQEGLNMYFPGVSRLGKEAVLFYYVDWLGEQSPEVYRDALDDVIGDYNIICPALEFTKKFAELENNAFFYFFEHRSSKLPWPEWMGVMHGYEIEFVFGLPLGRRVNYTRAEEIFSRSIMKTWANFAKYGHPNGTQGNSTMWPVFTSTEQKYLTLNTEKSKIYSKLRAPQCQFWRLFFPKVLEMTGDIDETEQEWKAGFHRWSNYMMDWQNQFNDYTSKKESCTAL
Protocol: (§1) For measurement of esterase activity, brain homogenate and serum of mouse were used as choline esterase enzyme sources, and the method of Ellman et. al (Biochemical pharmacology 7: 88-95 1961) were referred. Compound of each example were diluted in dimethylsulfoxide.
(§2) In detail, acetylthiocholine or butyrylthiocholine as substrates, test compounds, and DNTB [[…]] were added to the mouse brain homogenate or serum, respectively.
(§3) After incubation, thiocholine was produced by enzyme reaction in the mixture, and then, the yellow product was formed by the reaction of thiocholine and DTNB. The activity of acetylcholine esterase (AChE) or butyrylcholine esterase (BuChE) was evaluated by determination of absorbance at 415 nm. […] And the selectivity for BuChE inhibition of each compound was calculated by the ratio: IC50 (AchE)/IC50 (BuChE).

[2] = target: T2, acetylcholine esterase (AChE) (Mus musculus, UniProt P21836); experiment: In vitro assay for choline esterase inhibition (Ellman method), acetylthiocholine substrate, mouse brain homogenate; type: biochemical
T2 construct: brain homogenate and serum of mouse were used as choline esterase enzyme sources; from tissue; host or cells: mouse brain homogenate
T2 sequence (P21836 32-614): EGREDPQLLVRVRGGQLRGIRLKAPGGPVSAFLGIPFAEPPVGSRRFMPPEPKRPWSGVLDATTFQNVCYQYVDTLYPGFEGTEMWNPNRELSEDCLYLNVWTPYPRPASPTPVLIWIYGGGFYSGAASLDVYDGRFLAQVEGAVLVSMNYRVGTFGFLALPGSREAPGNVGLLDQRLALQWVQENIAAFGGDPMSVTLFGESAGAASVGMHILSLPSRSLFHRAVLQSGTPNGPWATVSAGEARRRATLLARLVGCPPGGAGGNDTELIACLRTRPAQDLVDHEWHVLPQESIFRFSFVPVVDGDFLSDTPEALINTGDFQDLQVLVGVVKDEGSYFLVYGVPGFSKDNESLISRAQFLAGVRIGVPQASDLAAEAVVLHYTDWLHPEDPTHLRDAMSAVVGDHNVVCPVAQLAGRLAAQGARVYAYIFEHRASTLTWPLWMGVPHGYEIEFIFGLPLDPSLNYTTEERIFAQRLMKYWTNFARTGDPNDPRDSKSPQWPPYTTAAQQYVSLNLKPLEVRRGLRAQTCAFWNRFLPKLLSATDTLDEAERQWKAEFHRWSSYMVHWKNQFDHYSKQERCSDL
Protocol: as §1, §2, §3

[3] = mouse serum, butyrylthiocholine, absorbance at 415 nm, read-out: BuChE inhibitory activity IC50
[4] = mouse brain homogenate, acetylthiocholine, absorbance at 415 nm, read-out: AChE inhibitory activity IC50

SMILES	IC50 [1, 3]	Ratio AChE/BuChE [1]	selectivity to butyrylcholinesterase (BuChE versus AChE inhibitory activity), in words [1]	IC50 [2, 4]	IC50 [1]	IC50 [2]
O=C(NCCc1ccccc1)Oc1ccc2c(c1)CCN2Cc1ccccc1 [Example 16, 1-benzylindolin-5-yl phenethylcarbamate]	42 nM	230	much higher	9800 nM	–	–
O=C(NCCSCc1ccco1)Oc1ccc2c(c1)CCN2Cc1ccccc1 [Example 54, 1-benzylindolin-5-yl 2-(furfurylthio)ethylcarbamate]	–	>6700	much higher	–	15 nM	> 100000 nM
CC(C)c1ccc(NC(=O)Oc2ccc3c(c2)CCN3CCc2ccccc2)cc1 [Example 3, 1-phenethylindolin-5-yl 4-isopropylphenylcarbamate]	–	>83	–	–	1200 nM	> 100000 nM
CC(C)(C)C1CCC(NC(=O)Oc2ccc3c(c2)CCN3Cc2ccccc2)CC1 (stereo not shown) [Example 43, 1-benzylindolin-5-yl 4-tert-butylcyclohexylcarbamate]	–	>590	–	–	170 nM	> 100000 nM
Cc1ccc(C(C)NC(=O)Oc2ccc3c(c2)CCN3Cc2ccccc2)cc1 (stereo not shown) [Example 97, 1-benzylindolin-5-yl 1-(p-tolyl)ethylcarbamate]	–	>220	–	–	450 nM	> 100000 nM
CC(C)c1ccc(NC(=O)Oc2ccc3c(c2)CCN3CC2CCCCC2)cc1 [Example 75, 1-(cyclohexylmethyl)indolin-5-yl 4-isopropylphenylcarbamate]	–	>130	–	–	770 nM	> 100000 nM
CC(C)c1ccc(NC(=O)Oc2ccc3c(c2)CCN3Cc2ccc(O)cc2)cc1 [Example 78, 1-(4-hydroxybenzyl)indolin-5-yl 4-isopropylphenylcarbamate]	–	>120	–	–	820 nM	> 100000 nM
O=C(NCCc1ccc(Cl)cc1Cl)Oc1ccc2c(c1)CCN2Cc1ccccc1 [Example 118, 1-benzylindolin-5-yl 2,4-dichlorophenethylcarbamate]	–	>10000	much higher	–	10 nM	> 100000 nM
CN(C)c1ccc(NC(=O)Oc2ccc3c(c2)CCN3Cc2ccccc2)cc1 [Example 133, 1-benzylindolin-5-yl 4-dimethylaminophenylcarbamate]	–	>2600	much higher	–	39 nM	> 100000 nM
Cc1ccc(CCNC(=O)Oc2ccc3c(c2)CCN3Cc2ccccc2)c(C)c1 [Example 116, 1-benzylindolin-5-yl 2,4-dimethylphenethylcarbamate]	–	>2200	much higher	–	45 nM	> 100000 nM
CC(C)c1ccc(NC(=O)Oc2ccc3c(c2)CCN3Cc2cccnc2)cc1 [Example 28, 1-(3-pyridylmethyl)indolin-5-yl 4-isopropylphenylcarbamate]	–	>210	–	–	470 nM	> 100000 nM
CC(C)c1ccc(NC(=O)Oc2ccc3c(c2)CCN3Cc2ccc[nH]2)cc1 [Example 65, 1-[(pyrrol-2-yl)methyl]indolin-5-yl-4-isopropylphenylcarbamate]	700 nM	>140	–	> 100000 nM	–	–
CN(C)CC(C)(C)CNC(=O)Oc1ccc2c(c1)CCN2Cc1ccccc1 [Example 156, 1-benzylindolin-5-yl 3-dimethylamino-2,2-dimethylpropylcarbamate]	–	>200	–	–	510 nM	> 100000 nM
CC(C)c1ccc(NC(=O)Oc2ccc3c(c2)CCN3CCC(C)(C)C)cc1 [Example 7, 1-(3,3-dimethylbutyl)indolin-5-yl 4-isopropylphenylcarbamate]	–	>110	–	–	900 nM	> 100000 nM
COc1cc(CN2CCc3cc(OC(=O)Nc4ccc(C(C)C)cc4)ccc32)ccc1O [Example 67, 1-(4-hydroxy-3-methoxybenzyl)indolin-5-yl-4-isopropylphenylcarbamate]	1300 nM	>77	–	> 100000 nM	–	–
C[C@H](NC(=O)Oc1ccc2c(c1)CCN2Cc1ccccc1)c1ccccc1 [Example 19, 1-benzylindolin-5-yl (S)-1-phenylethylcarbamate]	–	>530	–	–	190 nM	> 100000 nM
CCCCCCNC(=O)Oc1ccc2c(c1)CCN2Cc1ccccn1 [Example 147, 1-(2-pyridylmethyl)indolin-5-yl n-hexylcarbamate]	11 nM	23	–	250 nM	–	–
O=C(NCC1CCCO1)Oc1ccc2c(c1)CCN2Cc1ccccc1 (stereo not shown) [Example 51, 1-benzylindolin-5-yl 2-tetrahydrofurylmethylcarbamate]	16 nM	1100	much higher	18000 nM	–	–
O=C(NCc1ccncc1)Oc1ccc2c(c1)CCN2Cc1ccccc1 [Example 103, 1-benzylindolin-5-yl 4-pyridylmethylcarbamate]	110 nM	85	–	9300 nM	–	–
CNC(=O)Oc1ccc2c(c1)CCN2Cc1ccccc1 [Example 131, 1-benzylindolin-5-yl methylcarbamate]	–	6.2	–	–	210 nM	1300 nM
O=C(NC1CCCCC1)Oc1ccc2c(c1)CCN2Cc1ccccc1 [Example 20, 1-benzylindolin-5-yl cyclohexylcarbamate]	–	>1500	much higher	–	67 nM	> 100000 nM
O=C(NC1CCCc2ccccc21)Oc1ccc2c(c1)CCN2Cc1ccccc1 (stereo not shown) [Example 96, 1-benzylindolin-5-yl-1,2,3,4-tetrahydronaphthalen-1-ylcarbamate]	17 nM	>5900	much higher	> 100000 nM	–	–
COC1C=CC(CNC(=O)Oc2ccc3c(c2)CCN3Cc2ccccc2)(OC)O1 (stereo not shown) [Example 122, 1-benzylindolin-5-yl (2,5-dihydro-2,5-dimethoxyfuran-2-yl)methylcarbamate]	–	>210	–	–	480 nM	> 100000 nM
C=C(C)CNC(=O)Oc1ccc2c(c1)CCN2Cc1ccccc1 [Example 53, 1-benzylindolin-5-yl 2-methylallylcarbamate]	28 nM	1600	much higher	46000 nM	–	–
CN(CC1CCOCC1)C(=O)Oc1ccc2c(c1)C(C)(C)CN2Cc1ccccn1 [Example 218, N-methyl-O-[1-(2-pyridylmethyl)-3,3-dimethylindolin-5-yl]-N-(4-tetrahydropyranylmethyl)carbamate]	–	13000	much higher	–	0.66 nM	8500 nM
CCCN(CCC)C(=O)CC1CN(Cc2ccccc2)c2ccc(OC(=O)Nc3ccc(C(C)C)cc3)cc21 (stereo not shown) [Example 161, 1-benzyl-3-(di-n-propylaminocarbonylmethyl)indolin-5-yl 4-isopropylphenylcarbamate]	–	>670	–	–	150 nM	> 100000 nM
CN(C)c1ccc(NC(=O)Oc2ccc3c(c2)CCN3Cc2ccccn2)cc1 [Example 152, 1-(2-pyridylmethyl)indolin-5-yl 4-dimethylaminophenylcarbamate]	57 nM	19	–	1100 nM	–	–
CCC(COC)NC(=O)Oc1ccc2c(c1)CCN2Cc1ccccc1 (stereo not shown) [Example 46, 1-benzylindolin-5-yl 1-methoxybutan-2-ylcarbamate]	–	>670	–	–	150 nM	> 100000 nM
CC(C)c1ccc(NC(=O)Oc2ccc3c(c2)CCN3Cc2c[nH]c3ccccc23)cc1 [Example 80, 1-(indol-3-ylmethyl)indolin-5-yl 4-isopropylphenylcarbamate]	–	>710	–	–	140 nM	> 100000 nM
O=C(Nc1ccc2c(c1)OCO2)Oc1ccc2c(c1)CCN2Cc1ccccc1 [Example 12, 1-benzylindolin-5-yl 5-benzo[d][1,3]dioxolylcarbamate]	290 nM	38	–	11000 nM	–	–
